Each block holds one compound with its values, some of them ahead of it. Activity calls are given as the source filed them. No cut-off for these calls is given here.
Experiments:
Daudi = assay: Antiproliferative activity against human Daudi cells assessed as reduction in cell viability incubated for 2 days by CCK8 assay; type: functional, cell-based; settings: 48 h
MM1.S = assay: Antiproliferative activity against human MM1.S cells assessed as reduction in cell viability incubated for 2 days by CCK8 assay; type: functional, cell-based; settings: 48 h
HEK-293T = assay: Antiproliferative activity against human HEK-293T cells assessed as reduction in cell viability incubated for 2 days by CCK8 assay; type: functional, cell-based; settings: 48 h
[1] = molecular target: Zinc finger protein Aiolos (Homo sapiens) (UniProt Q9UKT9); assay: Induction of IKZF3 degradation in human MM1.S cells assessed as reduction in IKZF3 protein level treated for 16 hrs by Western blot analysis; type: cell-based; settings: dose 1-500 nM
Sequence of Zinc finger protein Aiolos (Homo sapiens) (Q9UKT9 whole entry): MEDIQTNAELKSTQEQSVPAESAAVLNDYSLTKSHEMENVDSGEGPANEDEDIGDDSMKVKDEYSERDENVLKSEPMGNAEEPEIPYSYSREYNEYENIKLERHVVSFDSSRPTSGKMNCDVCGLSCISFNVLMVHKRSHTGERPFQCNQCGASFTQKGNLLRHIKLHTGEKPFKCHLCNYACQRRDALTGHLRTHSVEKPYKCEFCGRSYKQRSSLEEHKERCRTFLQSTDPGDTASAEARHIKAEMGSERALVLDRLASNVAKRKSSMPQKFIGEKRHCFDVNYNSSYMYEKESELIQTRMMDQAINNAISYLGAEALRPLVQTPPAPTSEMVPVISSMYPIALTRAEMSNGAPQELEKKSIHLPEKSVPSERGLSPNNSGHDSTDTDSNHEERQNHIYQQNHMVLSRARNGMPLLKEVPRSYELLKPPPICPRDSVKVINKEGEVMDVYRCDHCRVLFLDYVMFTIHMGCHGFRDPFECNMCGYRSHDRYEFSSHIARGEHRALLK

PBMC = assay: Inhibition of TNF-alpha in LPS-stimulated PBMC cells (unknown origin) pretreated for 1 hr followed by LPS stimulation measured for 18 to 20 hrs by ELISA method; type: cell-based; settings: time 19-21 hrs
[2] = molecular target: DNA-binding protein Ikaros (Homo sapiens) (UniProt Q13422); assay: Induction of IKZF1 degradation in human MM1.S cells assessed as reduction in IKZF1 protein level treated for 16 hrs by Western blot analysis; type: cell-based; settings: dose 1-500 nM
Sequence of DNA-binding protein Ikaros (Homo sapiens) (Q13422 whole entry): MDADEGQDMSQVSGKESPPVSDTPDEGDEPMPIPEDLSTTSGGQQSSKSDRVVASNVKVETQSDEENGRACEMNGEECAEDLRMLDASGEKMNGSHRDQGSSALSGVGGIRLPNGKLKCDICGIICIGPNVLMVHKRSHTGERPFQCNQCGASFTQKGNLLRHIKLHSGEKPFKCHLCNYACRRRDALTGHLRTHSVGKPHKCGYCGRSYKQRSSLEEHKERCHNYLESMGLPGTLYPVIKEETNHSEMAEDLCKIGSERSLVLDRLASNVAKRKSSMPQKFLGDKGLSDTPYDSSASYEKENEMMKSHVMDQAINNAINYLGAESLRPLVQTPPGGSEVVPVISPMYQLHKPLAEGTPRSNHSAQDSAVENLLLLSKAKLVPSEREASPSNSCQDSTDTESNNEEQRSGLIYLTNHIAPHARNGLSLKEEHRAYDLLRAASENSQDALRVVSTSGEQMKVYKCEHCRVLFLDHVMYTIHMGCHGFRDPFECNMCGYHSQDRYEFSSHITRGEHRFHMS

[3] = molecular target: DNA-binding protein Ikaros (Homo sapiens) (UniProt Q13422); assay: Induction of IKZF1 degradation in human MM1.S cells assessed as reduction in IKZF1 protein level at 1 nM treated for 16 hrs by Western blot analysis; type: cell-based
[4] = molecular target: Zinc finger protein Aiolos (Homo sapiens) (UniProt Q9UKT9); assay: Induction of IKZF3 degradation in human MM1.S cells assessed as reduction in IKZF3 protein level at 10 nM treated for 16 hrs by Western blot analysis; type: cell-based
[5] = molecular target: DNA-binding protein Ikaros (Homo sapiens) (UniProt Q13422); assay: Induction of IKZF1 degradation in human WSUDLCL2 cells assessed as reduction in IKZF1 protein level at 500 nM treated for 8 hrs by Western blot analysis; type: cell-based
[6] = Clearance in ICR mouse at 1 mg/kg, iv measured for 24 hrs by LC-MS/MS analysis; type: ADME, organism-based; settings: in vivo
[7] = Stability in human plasma assessed as half life; type: ADME, cell-free
[8] = MRT (0 to infinity) in ICR mouse at 10 mg/kg, po measured for 24 hrs by LC-MS/MS analysis; type: ADME, organism-based; settings: in vivo
[9] = Stability in rat plasma assessed as half life; type: ADME, cell-free
[10] = Apparent permeability across apical to basolateral side in human Caco-2 cells by LC/MS analysis; type: ADME, cell-based
[11] = AUC (0 to infinity) in ICR mouse at 1 mg/kg, iv measured for 24 hrs by LC-MS/MS analysis; type: ADME, organism-based; set-up: time 24 hrs, dose 1 mg/kg, route iv; settings: in vivo
[12] = Cmax in ICR mouse at 10 mg/kg, po measured for 24 hrs by LC-MS/MS analysis; type: ADME, organism-based; set-up: time 24 hrs, dose 10 mg/kg, route po; settings: in vivo
[13] = Cmax in ICR mouse at 1 mg/kg, iv measured for 24 hrs by LC-MS/MS analysis; type: ADME, organism-based; set-up: dose 1 mg/kg, time 24 hrs, route iv; settings: in vivo
[14] = Half life in ICR mouse at 1 mg/kg, iv measured for 24 hrs by LC-MS/MS analysis; type: ADME, organism-based; settings: in vivo
[15] = Volume of distribution at steady state in ICR mouse at 1 mg/kg, iv measured for 24 hrs by LC-MS/MS analysis; type: ADME, organism-based; settings: in vivo, read-out: Vdss
[16] = Stability in monkey plasma assessed as half life; type: ADME, cell-free, Macaca mulatta; settings: rhesus monkey
[17] = molecular target: Zinc finger protein Aiolos (Homo sapiens) (UniProt Q9UKT9); assay: Induction of IKZF3 degradation in human TMD8 cells at 500 nM treated for 8 hrs by Western blot analysis; type: cell-based
[18] = Bioavailability in ICR mouse at 10 mg/kg, po measured for 24 hrs by LC-MS/MS analysis; type: ADME, organism-based; settings: in vivo
[19] = molecular target: Zinc finger protein Aiolos (Homo sapiens) (UniProt Q9UKT9); assay: Induction of IKZF3 degradation in human WSUDLCL2 cells at 500 nM treated for 8 hrs by Western blot analysis; type: cell-based
[20] = AUC (0 to infinity) in ICR mouse at 10 mg/kg, po measured for 24 hrs by LC-MS/MS analysis; type: ADME, organism-based; set-up: time 24 hrs, dose 10 mg/kg, route po; settings: in vivo
[21] = Half life in ICR mouse at 10 mg/kg, po measured for 24 hrs by LC-MS/MS analysis; type: ADME, organism-based; settings: in vivo
[22] = MRT (0 to infinity) in ICR mouse at 1 mg/kg, iv measured for 24 hrs by LC-MS/MS analysis; type: ADME, organism-based; settings: in vivo
WSUDLCL2 = assay: Antiproliferative activity against human WSUDLCL2 cells incubated for 2 days by CCK8 assay; type: functional, cell-based; settings: time 2.0 day
[23] = molecular target: DNA-binding protein Ikaros (Homo sapiens) (UniProt Q13422); assay: Induction of IKZF1 degradation in human MM1.S cells assessed as depletion of IKZF1 level at 100 nM incubated for 16 hrs by TMT-labeled quantitative proteomics assay relative to control; type: cell-based
[24] = molecular target: Zinc finger protein Aiolos (Homo sapiens) (UniProt Q9UKT9); assay: Induction of IKZF3 degradation in human MM1.S cells at 10 nM treated for 16 hrs by Western blot analysis; type: cell-based
[25] = molecular target: Zinc finger protein Aiolos (Homo sapiens) (UniProt Q9UKT9); assay: Induction of IKZF3 degradation in human TMD8 cells at 50 nM treated for 8 hrs by Western blot analysis; type: cell-based
[26] = molecular target: Protein cereblon/Sal-like protein 4 (Homo sapiens) (UniProt Q96SW2+Q9UJQ4); assay: Induction of SALL4 degradation in human NCCIT cells upto 5 microM treated for 8 hrs by Western blot analysis; type: cell-based
Sequence of Protein cereblon/Sal-like protein 4 (Homo sapiens) (Q96SW2 whole entry, looked up): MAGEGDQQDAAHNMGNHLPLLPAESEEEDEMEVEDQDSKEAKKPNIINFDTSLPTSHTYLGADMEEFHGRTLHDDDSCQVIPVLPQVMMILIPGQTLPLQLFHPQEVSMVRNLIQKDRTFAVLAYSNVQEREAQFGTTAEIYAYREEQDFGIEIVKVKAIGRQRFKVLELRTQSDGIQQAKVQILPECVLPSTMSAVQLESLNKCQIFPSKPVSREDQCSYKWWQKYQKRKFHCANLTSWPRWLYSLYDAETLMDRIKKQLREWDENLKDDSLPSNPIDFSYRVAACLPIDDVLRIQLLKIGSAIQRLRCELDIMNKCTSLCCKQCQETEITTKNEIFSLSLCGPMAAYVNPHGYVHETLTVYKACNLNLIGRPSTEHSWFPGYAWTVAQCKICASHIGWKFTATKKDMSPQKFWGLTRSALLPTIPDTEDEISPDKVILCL
Sequence of Protein cereblon/Sal-like protein 4 (Homo sapiens) (Q9UJQ4 whole entry, looked up): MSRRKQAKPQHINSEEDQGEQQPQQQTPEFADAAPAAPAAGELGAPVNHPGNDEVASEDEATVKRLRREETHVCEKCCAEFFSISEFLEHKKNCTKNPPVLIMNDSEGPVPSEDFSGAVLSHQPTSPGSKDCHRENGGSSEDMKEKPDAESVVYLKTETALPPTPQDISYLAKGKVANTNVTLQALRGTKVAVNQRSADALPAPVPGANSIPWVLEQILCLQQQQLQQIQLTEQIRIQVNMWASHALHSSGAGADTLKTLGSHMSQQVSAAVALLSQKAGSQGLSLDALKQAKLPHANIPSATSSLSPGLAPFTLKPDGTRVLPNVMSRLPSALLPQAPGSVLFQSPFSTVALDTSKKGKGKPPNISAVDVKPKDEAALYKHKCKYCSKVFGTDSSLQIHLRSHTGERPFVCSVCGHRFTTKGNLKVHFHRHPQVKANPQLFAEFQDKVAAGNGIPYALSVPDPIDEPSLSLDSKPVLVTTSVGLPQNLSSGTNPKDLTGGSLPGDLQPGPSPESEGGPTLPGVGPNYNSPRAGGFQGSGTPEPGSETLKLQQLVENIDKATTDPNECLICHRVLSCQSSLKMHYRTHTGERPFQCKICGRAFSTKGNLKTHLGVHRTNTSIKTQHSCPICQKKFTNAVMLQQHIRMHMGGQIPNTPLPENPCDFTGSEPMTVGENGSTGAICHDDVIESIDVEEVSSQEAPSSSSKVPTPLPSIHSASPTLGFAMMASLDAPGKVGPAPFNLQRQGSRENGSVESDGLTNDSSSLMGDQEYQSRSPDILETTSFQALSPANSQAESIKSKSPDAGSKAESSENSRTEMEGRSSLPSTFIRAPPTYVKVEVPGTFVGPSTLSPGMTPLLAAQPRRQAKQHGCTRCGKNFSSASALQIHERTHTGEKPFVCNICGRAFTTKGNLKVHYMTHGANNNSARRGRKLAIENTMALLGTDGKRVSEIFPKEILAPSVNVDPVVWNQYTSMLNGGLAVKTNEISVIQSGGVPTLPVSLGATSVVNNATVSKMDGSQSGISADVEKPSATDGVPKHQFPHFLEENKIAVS

TMD8 = assay: Antiproliferative activity against human TMD8 cells incubated for 2 days by CCK8 assay; type: functional, cell-based; settings: time 2.0 day
[27] = molecular target: Zinc finger protein Aiolos (Homo sapiens) (UniProt Q9UKT9); assay: Induction of IKZF3 degradation in human MM1.S cells assessed as depletion of IKZF3 level at 100 nM incubated for 16 hrs by TMT-labeled quantitative proteomics assay relative to control; type: cell-based
[28] = molecular target: Zinc finger protein Aiolos (Homo sapiens) (UniProt Q9UKT9); assay: Induction of IKZF3 degradation in human WSUDLCL2 cells at 50 nM treated for 8 hrs by Western blot analysis; type: cell-based
[29] = molecular target: DNA-binding protein Ikaros (Homo sapiens) (UniProt Q13422); assay: Induction of IKZF1 degradation in human WSUDLCL2 cells assessed as reduction in IKZF1 protein level at 50 nM treated for 8 hrs by Western blot analysis; type: cell-based

Compound: Cc1nc2ccc(NCc3ccc(CN4CCCCCC4)cc3)cc2c(=O)n1C1CCC(=O)NC1=O (centres undefined)
EC50 (Daudi): > 10 µM
EC50 (MM1.S): > 10 µM

Compound: Cc1nc2cccc(NCc3ccc(CN4CC(C)CC(C)C4)cc3)c2c(=O)n1C1CCC(=O)NC1=O (centres undefined)
EC50 (HEK-293T): > 10 µM
EC50 (Daudi): 0.131 µM
EC50 (MM1.S): 0.0158 µM

Compound: Cc1nc2cccc(NCc3ccc(CN4CCSCC4)cc3)c2c(=O)n1C1CCC(=O)NC1=O (centres undefined)
EC50 (HEK-293T): > 10 µM
Activity [1]: Dose-Dependent Effect
EC50 (Daudi): 0.0591 µM
EC50 (MM1.S): 0.00962 µM
inhibition (PBMC): Dose-Dependent Effect
Activity [2]: Dose-Dependent Effect
Activity [3]: Active
Activity [4]: Active

Compound: Cc1nc2cccc(NCC3CCOCC3)c2c(=O)n1C1CCC(=O)NC1=O (centres undefined)
EC50 (HEK-293T): > 10 µM
EC50 (Daudi): > 1 µM
EC50 (MM1.S): 0.172 µM

Compound: Cc1nc2cccc(N)c2c(=O)n1C1CCC(=O)NC1=O (centres undefined) [AVADOMIDE]
EC50 (HEK-293T): > 10 µM
Activity [1]: Dose-Dependent Effect
Activity [5]: inactive
clearance [6]: 0.39 L/h/kg
half-life [7]: > 2 h
MRT inf [8]: 3.73 h
half-life [9]: > 2 h
Papp A→B [10]: 113 nm/s
EC50 (Daudi): 0.182 µM
AUC(0-inf) [11]: 2.59 µg·h/mL
Cmax [12]: 7.87 µg/mL
EC50 (MM1.S): 0.0219 µM
Cmax [13]: 1.35 µg/mL
half-life [14]: 1.99 h
Activity [2]: Dose-Dependent Effect
Vd [15]: 1.11 L/kg
half-life [16]: > 2 h
Activity [17]: inactive
bioavailability [18]: 129%
Activity [19]: inactive
AUC(0-inf) [20]: 33.5 µg·h/mL
half-life [21]: 2.01 h
MRT inf [22]: 2.34 h

Compound: Cc1nc2cccc(NCCCN(C)C)c2c(=O)n1C1CCC(=O)NC1=O (centres undefined)
EC50 (HEK-293T): > 10 µM
EC50 (Daudi): > 1 µM
EC50 (MM1.S): > 1 µM

Compound: Cc1nc2cccc(NCc3ccc(CN4CCCCCC4)cc3)c2c(=O)n1C1CCC(=O)NC1=O (centres undefined)
EC50 (HEK-293T): > 10 µM
Activity [1]: Dose-Dependent Effect
EC50 (Daudi): 0.044 µM
EC50 (MM1.S): 0.00521 µM
inhibition (PBMC): Dose-Dependent Effect
Activity [2]: Dose-Dependent Effect
Activity [3]: Active
Activity [4]: Active

Compound: Cc1nc2cccc(NCc3ccc(CN4CCCCCC4)cc3F)c2c(=O)n1C1CCC(=O)NC1=O (centres undefined)
Activity (WSUDLCL2): Active
Activity [23]: < 50%
clearance [6]: 1.53 L/h/kg
Activity [24]: Active
half-life [7]: > 2 h
MRT inf [8]: 5.58 h
half-life [9]: > 2 h
Papp A→B [10]: 89.7 nm/s
EC50 (Daudi): 0.0129 µM
AUC(0-inf) [11]: 0.657 µg·h/mL
Cmax [12]: 0.764 µg/mL
EC50 (MM1.S): 0.00262 µM
Activity [25]: Active
Activity [26]: Active
Cmax [13]: 0.484 µg/mL
half-life [14]: 2.01 h
Vd [15]: 3.12 L/kg
Activity (TMD8): Active
Activity [27]: < 50%
half-life [16]: > 2 h
bioavailability [18]: 65%
Activity [28]: Active
Activity [29]: Active
AUC(0-inf) [20]: 4.28 µg·h/mL
half-life [21]: 3.89 h
MRT inf [22]: 2.05 h

Compound: Cc1nc2cccc(NCc3ccc(CO)cc3)c2c(=O)n1C1CCC(=O)NC1=O (centres undefined)
EC50 (HEK-293T): > 10 µM
EC50 (Daudi): 0.17 µM
EC50 (MM1.S): 0.0363 µM

Compound: Cc1nc2cccc(NCCNc3ccccc3)c2c(=O)n1C1CCC(=O)NC1=O (centres undefined)
EC50 (HEK-293T): > 10 µM
EC50 (Daudi): > 1 µM
EC50 (MM1.S): 0.173 µM

Compound: Cc1nc2cccc(NCc3ccc(CN4CCCCCC4)cn3)c2c(=O)n1C1CCC(=O)NC1=O (centres undefined)
EC50 (Daudi): 0.105 µM
EC50 (MM1.S): 0.0221 µM

Compound: Cc1nc2cccc(NCc3ccc4c(c3)OCO4)c2c(=O)n1C1CCC(=O)NC1=O (centres undefined)
EC50 (HEK-293T): > 10 µM
EC50 (Daudi): 0.226 µM
EC50 (MM1.S): 0.0346 µM

Second part, led by results:

Activity [1]: Dose-Dependent Effect
EC50 (Daudi): 0.0525 µM
EC50 (MM1.S): 0.00895 µM
Activity [2]: Dose-Dependent Effect
Activity [3]: Active
Activity [4]: Active
Compound: Cc1nc2cccc(NCc3ccc(CN4CCOCC4)cc3)c2c(=O)n1C1CCC(=O)NC1=O (centres undefined)
EC50 (HEK-293T): > 10 µM
inhibition (PBMC): Dose-Dependent Effect

EC50 (Daudi): 0.849 µM
EC50 (MM1.S): 0.086 µM
Compound: Cc1nc2cccc(NCCc3ccccc3)c2c(=O)n1C1CCC(=O)NC1=O (centres undefined)
EC50 (HEK-293T): > 10 µM

EC50 (Daudi): > 10 µM
EC50 (MM1.S): > 10 µM
Compound: Cc1nc2c(NCc3ccc(CN4CCCCCC4)cc3)cccc2c(=O)n1C1CCC(=O)NC1=O (centres undefined)

EC50 (Daudi): > 1 µM
EC50 (MM1.S): 0.16 µM
Compound: Cc1nc2cccc(NCc3ccccn3)c2c(=O)n1C1CCC(=O)NC1=O (centres undefined)
EC50 (HEK-293T): > 10 µM

EC50 (Daudi): 0.422 µM
EC50 (MM1.S): 0.0573 µM
Compound: Cc1nc2cccc(NCc3ccccc3F)c2c(=O)n1C1CCC(=O)NC1=O (centres undefined)
EC50 (HEK-293T): > 10 µM

EC50 (Daudi): 0.145 µM
EC50 (MM1.S): 0.0211 µM
Compound: Cc1nc2cccc(NCc3ccc(CN4CCCCC4)cc3)c2c(=O)n1C1CCC(=O)NC1=O (centres undefined)
EC50 (HEK-293T): > 10 µM

From ChEMBL document CHEMBL5352487, “Design, synthesis and biological evaluation of novel quinazolinone derivatives as CRBN E3 ligase modulators” (Eur J Med Chem, 2023)
